pIC50: −log10 of the molar value.
Key:
HaCaT [1] = assay: Antiproliferative activity against human HaCaT cells; assay type: cell-based
HaCaT [2] = assay: Cytotoxicity against human HaCaT cells assessed as LDH release at 2 uM; assay type: cell-based

Row | SMILES | pIC50 (HaCaT [1]) | Activity (HaCaT [2])
1 | O=C1C=C(O)c2cccc(O)c2C1=O | < 5.00 | –
2 | CC(O)c1cc2c(o1)C(=O)c1ccccc1C2=O (configuration not stated) | 5.43 | –
3 | CC/C=C/C1=C(O)C(=O)c2c(O)cccc2C1=O | < 5.00 | –
4 | CCc1cc2c(o1)C(=O)c1c(O)cccc1C2=O | 5.52 | –
5 | CC(=O)c1cc2c(o1)C(=O)c1c(O)cccc1C2=O | 6.52 | 346 mU
6 | CCc1cc2c(o1)-c1cccc(O)c1C(=O)C2=O | 6.05 | 235 mU
7 | CC1(C)CCC2=C(O1)C(=O)c1ccccc1C2=O [ALPHA-LAPACHONE] | 5.00 | –
8 | O=C1c2c(O)cccc2Cc2cccc(O)c21 [ANTHRALIN] | – | 294 mU
9 | CC1(C)C=CC2=C(O1)C(=O)c1ccccc1C2=O [DEHYDRO-ALPHA-LAPACHONE] | < 5.00 | –
10 | C=C(C)C1CC2=C(O1)C(=O)c1ccccc1C2=O (stereo not drawn) [DEHYDROISO-ALPHA-LAPACHONE] | 5.37 | –
11 | CC(C)=CCC1=C(O)C(=O)c2ccccc2C1=O [LAPACHOL] | < 5.00 | –
12 | CC1(C)CCC2=C(O1)c1ccccc1C(=O)C2=O [LAPACHONE] | 6.15 | 329 mU
13 | CC(=O)c1cc2c(o1)C(=O)c1ccccc1C2=O [NAPABUCASIN] | 6.30 | 331 mU
